Measurements: ChEMBL document CHEMBL4257450, “The synthesis, biological evaluation and structure-activity relationship of 2-phenylaminomethylene-cyclohexane-1,3-diones as specific anti-tuberculosis agents” (Medchemcomm, 2017)
Converted amounts (≈) assume the structure as drawn.

Experiments:
[1] = tested on: Mycobacterium tuberculosis; assay: Antimycobacterial activity against Mycobacterium tuberculosis H37Rv after 14 days by broth dilution method; format: functional; details: 336 h
[2] = tested on: Mycolicibacterium smegmatis; assay: Antimycobacterial activity against Mycobacterium smegmatis ATCC 607 after 24 hrs; format: functional; details: ATCC 607, 24 h
Micrococcus luteus = assay: Antibacterial activity against Micrococcus luteus ATCC 10240 after 24 hrs; format: functional; details: ATCC 10240, 24 h
Escherichia coli = assay: Antibacterial activity against Escherichia coli 10536 after 24 hrs; format: functional; details: Escherichia coli, 10536, 24 h
Klebsiella pneumoniae = assay: Antibacterial activity against Klebsiella pneumoniae ATCC BAA-2146 after 24 hrs; format: functional; details: ATCC BAA-2146, 24 h
Bacillus subtilis = assay: Antibacterial activity against Bacillus subtilis ATCC 11774 after 24 hrs; format: functional; details: ATCC 11774, 24 h
[3] = tested on: Staphylococcus epidermidis; assay: Antibacterial activity against Staphylococcus epidermidis ATCC 12228 after 24 hrs; format: functional; details: ATCC 12228, 24 h
Staphylococcus aureus = assay: Antibacterial activity against Staphylococcus aureus ATCC 25923 after 24 hrs; format: functional; details: ATCC 25923, 24 h
Pseudomonas aeruginosa = assay: Antibacterial activity against Pseudomonas aeruginosa ATCC 10145 after 24 hrs; format: functional; details: ATCC 10145, 24 h
Enterococcus faecalis = assay: Antibacterial activity against Enterococcus faecalis ATCC 51299 after 24 hrs; format: functional; details: ATCC 51299, 24 h
[4] = Growth inhibition of human MCF7 cells at 50 uM by MTT assay relative to control; format: cell-based; details: read-out: GI
[5] = Growth inhibition of HEK293 cells at 1 to 40 uM by MTT assay relative to control; format: cell-based; details: human, read-out: GI
[6] = Growth inhibition of human MCF7 cells at 1 to 40 uM by MTT assay relative to control; format: cell-based; details: read-out: GI
[7] = Growth inhibition of human PC3 cells at 1 to 40 uM by MTT assay relative to control; format: cell-based, PC-3; details: read-out: GI
[8] = Growth inhibition of human HCT116 cells at 1 to 40 uM by MTT assay relative to control; format: cell-based, HCT-116; details: read-out: GI
[9] = Growth inhibition of HEK293 cells at 50 uM by MTT assay relative to control; format: cell-based; details: human, read-out: GI
[10] = Growth inhibition of human PC3 cells at 50 uM by MTT assay relative to control; format: cell-based, PC-3; details: read-out: GI
[11] = Growth inhibition of human HCT116 cells at 50 uM by MTT assay relative to control; format: cell-based, HCT-116; details: read-out: GI
[12] = tested on: Mycobacterium tuberculosis; assay: Antimycobacterial activity against Mycobacterium tuberculosis; format: functional
[13] = tested on: Mycolicibacterium smegmatis; assay: Antimycobacterial activity against Mycobacterium smegmatis; format: functional
[14] = Selectivity ratio of MIC for Mycobacterium smegmatis to MIC for Mycobacterium tuberculosis; format: functional
HEK293 = assay: Growth inhibition of HEK293 cells up to 80 uM by MTT assay relative to control; format: cell-based; details: human

CC1(C)CC(=O)C(=CNc2ccccc2C(F)(F)F)C(=O)C1
MIC [1]: > 80 µg/mL

CCCN(C=C1C(=O)CC(C)(C)CC1=O)CCC
MIC [1]: > 80 µg/mL

Cc1ccc(NC=C2C(=O)CC(C)(C)CC2=O)c(C)c1C
MIC [1]: > 80 µg/mL

O=C1CCCC(=O)C1=CNc1ccc([N+](=O)[O-])cc1Cl
MIC [1]: 40 to 80 µg/mL (≈ 136 to 271 µM)

CC1(C)CC(=O)C(=CNc2ccccc2)C(=O)C1
MIC [1]: > 80 µg/mL

O=C1CCC(=O)C1=CNc1ccc([N+](=O)[O-])cc1Cl
MIC [1]: > 80 µg/mL

CC1(C)CC(=O)C(=CNc2ccc(Cl)cc2)C(=O)C1
MIC [1]: > 80 µg/mL

CC1(C)CC(=O)C(=CNc2cc(Cl)c(Cl)cc2Cl)C(=O)C1
MIC [1]: > 80 µg/mL

C[C@H]1COc2c(N3CCN(C)CC3)c(F)cc3c(=O)c(C(=O)O)cn1c23.C[C@H]1COc2c(N3CCN(C)CC3)c(F)cc3c(=O)c(C(=O)O)cn1c23.O [LEVOFLOXACIN]
MIC [1]: 2.5 µg/mL | MIC [2]: 0.156 µg/mL | MIC (Micrococcus luteus): 0.078 µg/mL | MIC (Escherichia coli): 0.078 µg/mL | MIC (Klebsiella pneumoniae): 0.625 to 1.25 µg/mL | MIC (Bacillus subtilis): 0.39 µg/mL | MIC [3]: 0.039 to 0.078 µg/mL | MIC (Staphylococcus aureus): 0.078 to 0.156 µg/mL | MIC (Pseudomonas aeruginosa): 0.312 to 0.625 µg/mL | MIC (Enterococcus faecalis): 0.156 µg/mL

CC1(C)CC(=O)C(=CNc2ccc([N+](=O)[O-])cc2)C(=O)C1
MIC [1]: > 80 µg/mL

CC1(C)CC(=O)C(=CNc2ccc(F)cc2F)C(=O)C1
MIC [1]: > 80 µg/mL

CCCCNC=C1C(=O)CC(C)(C)CC1=O
MIC [1]: > 80 µg/mL

CC1(C)CC(=O)C(=CNc2ccccc2Br)C(=O)C1
MIC [1]: > 80 µg/mL

CC1CC(=O)C(=CNc2ccccc2O)C(=O)C1 (stereo not drawn)
MIC [1]: 20 µg/mL (≈ 81.5 µM) | inhibition at 50 µM [4]: 16.6% | inhibition at up to 40 µM [5]: < 20% | inhibition at up to 40 µM [6]: < 20% | inhibition at up to 40 µM [7]: < 20% | inhibition at up to 40 µM [8]: < 20% | inhibition at 50 µM [9]: 6.08% | inhibition at 50 µM [10]: 8.2% | inhibition at 50 µM [11]: 35.7%

O=C1CCCC(=O)C1=CNc1ccc([N+](=O)[O-])cc1F
MIC [1]: 80 µg/mL (≈ 288 µM)

CO[C@H]1/C=C/O[C@@]2(C)Oc3c(C)c(O)c4c(O)c(c(/C=N/N5CCN(C)CC5)c(O)c4c3C2=O)NC(=O)/C(C)=C\C=C\[C@H](C)[C@H](O)[C@@H](C)[C@@H](O)[C@@H](C)[C@H](OC(C)=O)[C@@H]1C [RIFAMPIN]
MIC [1]: 0.078 µg/mL (≈ 0.0948 µM) | MIC [12]: 0.2 µg/mL (≈ 0.243 µM) | MIC [13]: 100 µg/mL (≈ 122 µM) | Selectivity ratio [14]: 500 to 1000

CC1(C)CC(=O)C(=CNc2cccc(C(F)(F)F)c2)C(=O)C1
MIC [1]: > 80 µg/mL

CC1(C)CC(=O)C(=CNc2ccc([N+](=O)[O-])cc2Cl)C(=O)C1
MIC [1]: > 80 µg/mL

CNC=C1C(=O)CC(C)(C)CC1=O
MIC [1]: > 80 µg/mL

CC1(C)CC(=O)C(=CNc2ccccc2[N+](=O)[O-])C(=O)C1
MIC [1]: > 80 µg/mL

CC1(C)CC(=O)C(=CNc2cccc([N+](=O)[O-])c2)C(=O)C1
MIC [1]: > 80 µg/mL

CC1(C)CCC(=O)C(=CNc2ccccc2O)C1=O (mixture of isomers)
MIC [1]: 10 to 20 µg/mL | inhibition at up to 40 µM [5]: < 20% | inhibition at up to 40 µM [6]: < 20% | inhibition at up to 40 µM [7]: < 20% | inhibition at up to 40 µM [8]: < 20% | inhibition at 50 µM [9]: 64.1% | inhibition at 50 µM [10]: 41.2% | inhibition at 50 µM [11]: 60.7%

O=C1CC(c2ccc(Cl)cc2)CC(=O)C1=CNc1ccccc1O (stereo not drawn)
MIC [1]: 20 µg/mL (≈ 58.5 µM) | inhibition at 50 µM [4]: 23.4% | inhibition at up to 40 µM [5]: < 20% | inhibition at up to 40 µM [6]: < 20% | inhibition at up to 40 µM [7]: < 20% | inhibition at up to 40 µM [8]: < 20% | inhibition at 50 µM [9]: 44% | inhibition at 50 µM [10]: 18.6% | inhibition at 50 µM [11]: 28.6%

CC1(C)CC(=O)C(=CNCc2ccc(F)cc2)C(=O)C1
MIC [1]: > 80 µg/mL

CCCCCNC=C1C(=O)CC(C)(C)CC1=O
MIC [1]: > 80 µg/mL

O=C1CCCC(=O)C1=CSc1ccccc1O
MIC [1]: 40 to 80 µg/mL (≈ 161 to 322 µM)

O=C1CC(c2ccccc2)CC(=O)C1=CNc1ccccc1O (stereo not drawn)
MIC [1]: 5 to 10 µg/mL (≈ 16.3 to 32.5 µM) | inhibition at 50 µM [4]: 16.5% | inhibition at up to 40 µM [5]: < 20% | inhibition at up to 40 µM [6]: < 20% | inhibition at up to 40 µM [7]: < 20% | inhibition at up to 40 µM [8]: < 20% | inhibition at 50 µM [9]: 52.8% | inhibition at 50 µM [10]: 20.4%

O=C1CC(c2ccco2)CC(=O)C1=CNc1ccccc1O (stereo not drawn)
MIC [1]: 10 to 20 µg/mL (≈ 33.6 to 67.3 µM) | inhibition at 50 µM [4]: 2.92% | inhibition at up to 40 µM [5]: < 20% | inhibition at up to 40 µM [6]: < 20% | inhibition at up to 40 µM [7]: < 20% | inhibition at up to 40 µM [8]: < 20% | inhibition at 50 µM [9]: 46.4% | inhibition at 50 µM [10]: 26.1% | inhibition at 50 µM [11]: 42.8%

Cc1ccc(NC=C2C(=O)CC(C)(C)CC2=O)cc1C
MIC [1]: > 80 µg/mL

CC1(C)CC(=O)C(=CNc2ccc([N+](=O)[O-])cc2[N+](=O)[O-])C(=O)C1
MIC [1]: > 80 µg/mL

CC1(C)CC(=O)C(=CNc2ccc(Br)cc2)C(=O)C1
MIC [1]: > 80 µg/mL

Cc1ccc(NC=C2C(=O)CC(C)(C)CC2=O)c(C)c1
MIC [1]: > 80 µg/mL

O=C1CCC(=O)C1=CNc1ccc([N+](=O)[O-])cc1F
MIC [1]: > 80 µg/mL

CCCNC=C1C(=O)CC(C)(C)CC1=O
MIC [1]: > 80 µg/mL

CC1(C)CC(=O)C(=CNc2cccc3ccccc23)C(=O)C1
MIC [1]: > 80 µg/mL

CC[C@@H](CO)NCCN[C@@H](CC)CO [ETHAMBUTOL]
MIC [1]: 1.25 µg/mL (≈ 6.12 µM)

CC1(C)CC(=O)C(=CNc2cccc(Br)c2)C(=O)C1
MIC [1]: > 80 µg/mL

NNC(=O)c1ccncc1 [ISONIAZID]
MIC [1]: 0.313 µg/mL (≈ 2.28 µM) | MIC [12]: 0.02 µg/mL (≈ 0.146 µM) | MIC [13]: 25 µg/mL (≈ 182 µM) | Selectivity ratio [14]: 500 to 1000

O=C1CCCC(=O)C1=CNc1ccccc1O
MIC [1]: 5 to 10 µg/mL (≈ 21.6 to 43.2 µM) | inhibition at 50 µM [4]: 14.5% | inhibition at up to 40 µM [5]: < 20% | inhibition at up to 40 µM [6]: < 20% | inhibition at up to 40 µM [7]: < 20% | inhibition at up to 40 µM [8]: < 20% | inhibition at 50 µM [9]: 28.3% | inhibition at 50 µM [10]: 29.5% | inhibition at 50 µM [11]: 10.6%

CC1(C)CC(=O)C(=CNc2ccc([N+](=O)[O-])cc2F)C(=O)C1
MIC [1]: 80 µg/mL (≈ 261 µM)

CC1(C)CC(=O)C(=CNc2ccccc2O)C(=O)C1
MIC [1]: 2.5 µg/mL (≈ 9.64 µM) | MIC [2]: > 80 µg/mL | inhibition at 50 µM [4]: 15.1% | growth inhibition (GI) (HEK293): < 20% | MIC (Micrococcus luteus): 128 µg/mL (≈ 494 µM) | inhibition at up to 40 µM [5]: < 20% | MIC (Escherichia coli): 32 to 64 µg/mL (≈ 123 to 247 µM) | inhibition at up to 40 µM [6]: < 20% | inhibition at up to 40 µM [7]: < 20% | inhibition at up to 40 µM [8]: < 20% | MIC (Klebsiella pneumoniae): > 128 µg/mL | MIC (Bacillus subtilis): > 128 µg/mL | MIC [3]: > 128 µg/mL | MIC (Staphylococcus aureus): > 128 µg/mL | inhibition at 50 µM [9]: 9.03% | inhibition at 50 µM [10]: 10.1% | MIC (Pseudomonas aeruginosa): > 128 µg/mL | MIC (Enterococcus faecalis): > 128 µg/mL | inhibition at 50 µM [11]: 20.2%

CN[C@@H]1[C@H](O[C@H]2[C@H](O[C@H]3[C@H](O)[C@@H](O)[C@H](N=C(N)N)[C@@H](O)[C@@H]3N=C(N)N)O[C@@H](C)[C@]2(O)C=O)O[C@@H](CO)[C@H](O)[C@H]1O [STREPTOMYCIN]
MIC [1]: 1.56 µg/mL (≈ 2.68 µM)

CC1(C)CC(=O)C(=CSc2ccccc2O)C(=O)C1
MIC [1]: 40 to 80 µg/mL (≈ 145 to 289 µM)

O=C1CCC(=O)C1=CNc1ccccc1O
MIC [1]: > 80 µg/mL
